Consider 3 compounds from patent US8648091B2, “Dihydroquinolinones as ectoparasiticides” (Novartis AG, priority 2007, dated 2014).

SMILES strings stand for the structures.

For experiment [1], the system named is Ctenocephalides felis (cat flea). Kind of experiment: Activity in vitro against Ctenocephalides felis (cat flea), artificial feeding system. As to conditions: fleas fed on treated blood for 24 hours, dead fleas. The procedure:
1. Activity In Vitro Against Ctenocephalides felis (Cat Flea). A mixed adult population of fleas is placed in a suitably formatted 96-well plate allowing fleas to access and feed on treated blood via an artificial feeding system. Each compound is tested by serial dilution in order to determine its minimal effective dose (MED). Fleas are fed on treated blood for 24 hours, after which the compound's effect is recorded. Insecticidal activity is determined on the basis of the number of dead fleas recovered from the feeding system.

The test system of experiment [2] is Rhipicephalus sanguineus nymphs. The experiment can be described thus: In-vivo test against Rhipicephalus sanguineus nymphs on Mongolian gerbils. Set-up: species or system Mongolian gerbils (Meriones unguiculatus). The note with it: spray (or spot-on) application, tick number reduction vs placebo, Abbot's formula. The procedure:
4. In-Vivo Test Against Rhipicephalus sanguineus Nymphs on Mongolian Gerbils (Meriones unguiculatus) On day 0, gerbils are treated with the test compound at a given dose by spray (or spot-on) application. On day +1 (+2), the animals are infested with nymphs of Rhipicephalus. sanguineus. Ticks are left on the animals until full repletion. Seven days after infestation nymphs dropped off fully engorged are collected and counted. They are kept until molting to also evaluate growth regulating activity of the test compound. Efficacy in killing (and growth regulating) is expressed as a tick number (and molted tick number) reduction in comparison with a placebo treated group, using the Abbot's formula.

For experiment [3], the system named is Rhipicephalus sanguineus. Kind of experiment: Activity in vitro against ticks, microplate pre-coated with test compound. The note with it: at 10 ppm; percentage of dead ticks compared to untreated controls. The procedure: (§1) 2. Activity In Vitro Against Ticks 5-10 ticks of different species (i.e. Rhipicephalus sanguineus, Dermacentor spp., etc.) are distributed into a microplate pre-coated with test compound. Each compound is tested by serial dilution in order to determine its Minimal Effective Dose (MED). The microplates are then incubated at 28° C. and 80% humidity until evaluation. At different time points, ticks are excited by carbon dioxide flush and/or heat. […] If the ticks fail to respond to the stimulation, they are considered dead and the compound is scored as active at the tested concentration. Activity is calculated as a percentage of dead ticks compared to untreated controls.

Experiment [4] has as its system Amblyomma variegatum. Described as above. As to conditions: at 32 ppm; percentage of dead ticks compared to untreated controls. The procedure: as §1
Experiment [5] relates to Dermacentor variabilis. The description is as above. As to conditions: at 10 ppm; percentage of dead ticks compared to untreated controls. As for the experimental part: as §1
Experiment [6] concerns Rhipicephalus sanguineus. Kind of experiment: In-vivo test against ticks (Rhipicephalus sanguineus) on dogs. Set-up: species or system Dogs of the beagle breed. The note with it: for six weeks; 25 mg/kg spot-on (15% solution in Transcutol); weekly reinfestation; vs placebo, Abbot's formula. The procedure:
(§2) 5. In-Vivo Test Against Ticks (Rhipicephalus sanguineus) on Dogs Dogs of the beagle breed are separated into one treatment and one control group (4 dogs per group). On day 0, the dogs are treated with the test compound at a dose of 25 mg/kg (15% solution in Transcutol) by spot-on application (between the shoulder blades). On day +1, the animals are infested with unfed adult ticks (sex ratio 1:1). Evaluation of efficacy is performed at 48 h, and then weekly 48 h after reinfestation with ticks by counting the numbers of dead and live ticks recovered from the animals. Efficacy is expressed as comparison with a placebo treated group using the Abbot's formula. Infestation can be repeated at weekly intervals until efficacy drops.

Experiment [7] has as its system Dermanyssus gallinae. The experiment can be described thus: Activity in vitro against Dermanyssus gallinae. The note with it: at 63 ppm; 10 minutes contact, incubated 5 days. As for the experimental part: 3. Activity In Vitro Against Dermanyssus gallinae A clean female mite population is used to seed a suitably formatted 96-well plate containing the test substances to be evaluated for antiparasitic activity. Each compound is tested by serial dilution in order to determine its Minimal Effective Dose (MED). Mites are left in contact with the test compound for 10 minutes and are then incubated at 25° C. and 60% relative humidity (RH) for 5 days, during which the test compound's effect is monitored. Acaricidal activity is confirmed if mites are dead without having laid eggs. Egg-laying and ensuing mite development are also recorded to identify possible growth-regulating activity.

Experiment [8] relates to Ixodes ricinus. Kind of experiment: In-vivo test against ticks (Ixodes ricinus) on cats. As to conditions: 25 mg/kg spray (1% solution in Polypropylenglycol), vs placebo, Abbot's formula. As for the experimental part: 6. In-Vivo Test Against Ticks (Ixodes ricinus) on Cats
as §2, with “Cats” for “5. In-Vivo Test Against Ticks (Rhipicephalus sanguineus) on Dogs Dogs of the beagle breed”, “cats” for “dogs”, “(1%” for “(15%”, “Polypropylenglycol)” for “Transcutol)”, “spray application.” for “spot-on application (between the shoulder blades).”

As to `C=C(C)C1CCC(C)(/C=C/c2ccc3c(c2O)C(O)(c2ccc(OC)cc2)C(OC)C(=O)N3)O1` (stereo not drawn) [compound No. 8], the mean efficacy in experiment [1] (at 100 ppm) came to 90%; in experiment [2] (at 10 ppm), 60%.

In turn, `COc1ccc(C2(O)c3c(ccc(/C=C/C4(C)CCC(C(C)(C)O)O4)c3O)NC(=O)C2OC)cc1` (stereo not drawn) [compound No. 9] had a mean efficacy in experiment [1] (at 63 ppm) of 70%.

As to `COc1ccc(C2(O)c3c(ccc(/C=C/C4(C)CCC(C)(C)CO4)c3O)NC(=O)C2OC)cc1` (stereo not drawn) [compound No. 11], the mean efficacy was determined as 95% in experiment [1] (at 32 ppm); 100% in experiment [3]; 90% in experiment [4]; 100% in experiment [5]; 90% in experiment [7]; 95% in experiment [2] (at 3.2 ppm). For the same compound, the activity entry in experiment [6] is listed as “above 90%”; in experiment [8] (after one week) it was 95%; in experiment [8] (after two weeks), 70%.
